The source of these data is article PMC11944670, “Reshaping [^99mTc]Tc-DT11 to DT14D Tagged with Trivalent Radiometals for NTS1R-Positive Cancer Theranostics” (Pharmaceutics, 2025).

The target of series [1] is T1, human NTS1R (Homo sapiens, UniProt P30989).
T1 construct: in membrane homogenates obtained from WiDr cells; endogenous in cells; host or cells: WiDr cells (membrane homogenates)
Description: Competitive binding against [125I]I-Tyr3-NT in WiDr cell membrane homogenates. The settings on record: displacement of [125I]I-Tyr3-NT, WiDr cell membranes, mean ± sd, n = 3. How it is done:
The affinity of metal-free D[…] and metal-tagged [^natGa]Ga/[^natIn]In/[^natLu]Lu-D[…] (Supplementary Materials) for the human NTS1R was evaluated via competitive binding assays. These assays were performed using the [^125I]I-Tyr^3-NT radioligand in membrane homogenates obtained from WiDr cells, which were stored at -80 °C in 100 μL aliquots of Tris/EDTA buffer (10 mM Tris, 0.1 mM EDTA, pH 7.4). On the day of the experiment, the membrane homogenates were thawed, combined, and diluted in ice-cold binding buffer (BB: 50 mM HEPES, 5.5 mM MgCl2, 0.1 mg/mL bacitracin, 1% w/v BSA, pH 7.4). Each of the above ligands (including NT as a control) was incubated in triplicate at increasing concentrations (ranging from 10^-13 M to 10^-6 M in BB, 30 μL) with [^125I]I-Tyr^3-NT (214 pM in 70 μL BB) and membrane homogenate (300 μL in BB) for 1 h at 22 °C in an Incubator-Orbital Shaker unit (MPM Instr. SrI, Bernareggio, Milan, Italy). […] The filters were washed with ice-cold washing buffer (WB, 10 mM HEPES pH 7.4, 150 mM NaCl), collected individually, placed in separate RIA tubes, and measured for their radioactivity content in a gamma counter (automated multi-sample well-type instrument with a NaI(Tl) 3'' crystal, Canberra Packard Cobra^TM Quantum U5003/1, Auto-Gamma® counting system; Canberra Packard Central Europe GmbH, Schwadorf, Austria). […]
For orientation: Loss of bound radioactivity is the signal in a displacement assay; it reports binding, not function.

The nature of series [2]: in vivo. Further details: species or system mice. The settings on record: male, SCID, mouse, iv, total radioactivity; for tissue uptake at 48 h / tissue uptake at 72 h / tissue uptake at 24 h: Biodistribution. As for the experimental part: The distribution of [^67Ga]Ga/[^111In]In/[^177Lu]Lu-DT14D was investigated in male severe combined immunodeficiency (SCID) mice (49 mice in total, 6 weeks of age on arrival date, 22 ± 4 g, NCSR “Demokritos” Animal House, Athens, Greece) bearing NTS1R-positive AsPC-1 xenografts in their flanks. For xenograft induction, suspensions of freshly harvested AsPC-1 cells (5 × 10^6 cells in 150 µL sterile PBS) were subcutaneously injected into the mice’s flanks. The animals were kept under aseptic conditions and 4 weeks later developed well palpable masses at the inoculation sites (100 ± 50 mg) and biodistribution was conducted. On the day of the experiment, the animals received a bolus (100 μL, in vehicle: saline/EtOH 9/1 v/v) containing the radioligand via the tail vein. The following groups of four animals per time point, per treatment, were included per radioligand (the 4 h block groups comprised 3 animals instead) including the respective (radio)ligand amounts injected: i. 78–91 kBq [^67Ga]Ga-DT14D corresponding to 7–17 pmol DT14D at 1 and 4 h pi plus 4 h block (coinjection with 100 µg NT); ii. 74–92 kBq [^111In]In-DT14D corresponding to 20–25 pmol at 4 h (controls), 4 h pi (Entresto®; animals receiving a slurry of 12 mg/200 µL Entresto® oral gavage 30 min in advance) and 4 h block (coinjection with 100 µg NT); 24 h pi (including both controls and Entresto® mice groups); and iii. 730 kBq [^177Lu]Lu-DT14D corresponding to 40 pmol DT14D at 4, 24, 48, and 72 h pi plus 4 h block (co-injection with 100 µg NT). The animals were euthanized at predetermined time intervals, dissected and blood samples, organs of interest, and tumors were collected, weighed, and counted in the gamma counter. Biodistribution data were calculated as percent of the injected activity per gram tissue (%IA/g) with the aid of suitable standards of the administered activity. Results as the mean %IA/g values ± sd were obtained and statistical analysis was performed with PRISM^TM GraphPad—10.2 Software (San Diego, CA/USA), applying 2-way ANOVA with Tukey’s post hoc analysis, or, in the case of two variables, Šídák’s multiple comparisons test was adopted; differences with p < 0.05 were considered as statistically significant.

[3] abbreviates: 730 kBq, Tumor/Intestines ratio.

What is called IC50 is the point on the concentration scale where inhibition reaches its midpoint. Higher therefore signals weaker potency in that assay. Broadly, the tissue uptake is the percentage of the injected dose found per gram of tissue.

Residues, ends and D or L forms follow the SMILES beside them. *: point of attachment. DOTA = O=C(O)CN1CCN(CC(=O)O)CCN(CC(=O)*)CCN(CC(=O)O)CC1; X1 = Cc1ccc(CCCC(=O)NCCOCCOCCOCCOCC(=O)*)cc1; βAla = NCCC(=O)O

T1 sequence (P30989 whole entry): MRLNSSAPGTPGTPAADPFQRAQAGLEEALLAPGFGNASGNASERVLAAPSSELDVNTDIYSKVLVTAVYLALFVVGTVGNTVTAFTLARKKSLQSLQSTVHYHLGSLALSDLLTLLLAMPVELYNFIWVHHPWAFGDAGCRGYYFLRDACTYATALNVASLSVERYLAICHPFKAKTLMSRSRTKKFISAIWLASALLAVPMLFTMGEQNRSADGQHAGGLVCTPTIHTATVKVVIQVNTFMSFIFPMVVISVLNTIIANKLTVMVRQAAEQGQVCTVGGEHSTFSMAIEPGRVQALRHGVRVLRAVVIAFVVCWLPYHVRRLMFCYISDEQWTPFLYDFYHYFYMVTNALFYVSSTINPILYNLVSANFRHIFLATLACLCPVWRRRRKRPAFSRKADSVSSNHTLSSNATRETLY

`CC[C@H](C)[C@H](NC(=O)[C@H](Cc1ccc(O)cc1)NC(=O)[C@@H]1CCCN1C(=O)[C@H](CCCNC(=N)N)NC(=O)[C@H](CCCNC(=N)N)NC(=O)[C@H](CCCCNC(=O)COCCOCCOCCOCCNC(=O)CCCc1ccc(C)cc1)NC(=O)CCNC(=O)CCNC(=O)CCNC(=O)CN1CCN(CC(=O)O)CCN(CC(=O)O)CCN(CC(=O)O)CC1)C(=O)N[C@@H](CC(C)C)C(=O)O` [DT14D, DOTA-βAla-βAla-βAla-Lys(MPBA-PEG4)^7-Arg-Arg-Pro-Tyr-Ile-Leu-OH] ({DOTA-βAla-βAla-βAla}-K(X1)RRPYIL-OH) showed an IC50 in series [1] of 2.56 ± 0.26 nM.
As for `CC[C@H](C)[C@H](NC(=O)[C@H](Cc1ccc(O)cc1)NC(=O)[C@@H]1CCCN1C(=O)[C@H](CCCNC(=N)N)NC(=O)[C@H](CCCNC(=N)N)NC(=O)[C@H](CCCCNC(=O)COCCOCCOCCOCCNC(=O)CCCc1ccc(C)cc1)NC(=O)CCNC(=O)CCNC(=O)CCNC(=O)CN1CCN(CC(=O)O)CCN(CC(=O)O)CCN(CC(=O)O)CC1)C(=O)N[C@@H](CC(C)C)C(=O)O` [[^177Lu]Lu-DT14D, metal not drawn] ({DOTA-βAla-βAla-βAla}-K(X1)RRPYIL-OH), the tissue to tissue ratio at 72 h worked out at 29.8 ± 7.43 in series [2] (40 pmol, Tumor/Blood ratio); 1.44 ± 0.19 in series [2] (40 pmol, Tumor/Liver ratio); 9.66 ± 1.43 in series [2] (40 pmol, Tumor/Lungs ratio); 16.2 ± 5.04 in series [2] (40 pmol, Tumor/Pancreas ratio); 20.1 ± 3.03 in series [2] (730 kBq, Tumor/Heart ratio); 4.65 ± 0.91 in series [2] (setting [3]). Also, the tissue to tissue ratio at 72 h in series [2] (730 kBq, Tumor/Kidneys ratio) worked out at 2.26 ± 0.49; in series [2] (730 kBq, Tumor/Muscle ratio) it was 36.1 ± 14.6; in series [2] (730 kBq, Tumor/Spleen ratio), 0.89 ± 0.25; in series [2] (730 kBq, Tumor/Stomach ratio), 26.6 ± 5.58. Moreover, the tissue to tissue ratio at 48 h in series [2] (40 pmol, Tumor/Liver ratio) came to 1.63 ± 0.14; in series [2] (40 pmol, Tumor/Lungs ratio), 11.4 ± 1; in series [2] (40 pmol, Tumor/Pancreas ratio), 20.4 ± 1.96; in series [2] (730 kBq, Tumor/Blood ratio) it was 30.9 ± 3.67; in series [2] (730 kBq, Tumor/Heart ratio) it was 23 ± 2.32; in series [2] (setting [3]) it was 4.28 ± 0.33. The tissue to tissue ratio at 48 h in series [2] (730 kBq, Tumor/Kidneys ratio) turned out to be 1.78 ± 0.3; in series [2] (730 kBq, Tumor/Muscle ratio), 39.2 ± 5.49; in series [2] (730 kBq, Tumor/Spleen ratio) it was 1.1 ± 0.51; in series [2] (730 kBq, Tumor/Stomach ratio), 23.8 ± 2.17. The tissue uptake at 48 h in series [2] (730 kBq, AsPC-1 Tumor) is 1.56 ± 0.17 %ID/g; in series [2] (730 kBq, Blood) it was 0.05 ± 0.01 %ID/g; in series [2] (730 kBq, Femur), 0.38 ± 0.03 %ID/g; in series [2] (730 kBq, Heart) it was 0.07 ± 0.01 %ID/g; in series [2] (730 kBq, Intestines), 0.36 ± 0.01 %ID/g; in series [2] (730 kBq, Kidneys) it was 0.88 ± 0.06 %ID/g. Moreover, the tissue uptake at 48 h in series [2] (730 kBq, Liver) worked out at 0.96 ± 0.05 %ID/g; in series [2] (730 kBq, Lungs) it was 0.14 %ID/g; in series [2] (730 kBq, Muscle) it was 0.04 ± 0.01 %ID/g; in series [2] (730 kBq, Pancreas), 0.07 ± 0.01 %ID/g; in series [2] (730 kBq, Spleen), 1.6 ± 0.58 %ID/g; in series [2] (730 kBq, Stomach) it was 0.07 ± 0.01 %ID/g. The tissue uptake at 72 h in series [2] (730 kBq, AsPC-1 Tumor) came out at 1.24 ± 0.2 %ID/g; in series [2] (730 kBq, Blood), 0.04 %ID/g; in series [2] (730 kBq, Femur), 0.35 ± 0.03 %ID/g; in series [2] (730 kBq, Heart) it was 0.06 ± 0.01 %ID/g; in series [2] (730 kBq, Intestines), 0.27 ± 0.02 %ID/g; in series [2] (730 kBq, Kidneys) it was 0.57 ± 0.15 %ID/g. The tissue uptake at 72 h in series [2] (730 kBq, Liver) is 0.86 ± 0.1 %ID/g; in series [2] (730 kBq, Lungs), 0.13 ± 0.04 %ID/g; in series [2] (730 kBq, Muscle), 0.04 ± 0.02 %ID/g; in series [2] (730 kBq, Pancreas), 0.08 ± 0.02 %ID/g; in series [2] (730 kBq, Spleen) it was 1.49 ± 0.51 %ID/g; in series [2] (730 kBq, Stomach), 0.04 ± 0.01 %ID/g.
Regarding `CC[C@H](C)[C@H](NC(=O)[C@H](Cc1ccc(O)cc1)NC(=O)[C@@H]1CCCN1C(=O)[C@H](CCCNC(=N)N)NC(=O)[C@H](CCCNC(=N)N)NC(=O)[C@H](CCCCNC(=O)COCCOCCOCCOCCNC(=O)CCCc1ccc(C)cc1)NC(=O)CCNC(=O)CCNC(=O)CCNC(=O)CN1CCN(CC(=O)O)CCN(CC(=O)O)CCN(CC(=O)O)CC1)C(=O)N[C@@H](CC(C)C)C(=O)O` [[^111In]In-DT14D, metal not drawn] ({DOTA-βAla-βAla-βAla}-K(X1)RRPYIL-OH), the values for the tissue uptake at 24 h in series [2] (AsPC-1 Tumor) and in series [2] (Kidneys) were 2.82 ± 0.68 %ID/g and 1.7 ± 0.13 %ID/g, respectively. Also, the tissue to tissue ratio at 24 h in series [2] (Tumor/Intestines ratio) amounted to 4.07 ± 0.42; in series [2] (Tumor/Kidneys ratio) it was 1.66 ± 0.4; in series [2] (Tumor/Spleen ratio) it was 1.77 ± 0.32.
